Data: US20240270720A1, “INDAZOLE YL BENZIMIDAZOLE DERIVATIVE OR PHARMACEUTICALLY ACCEPTABLE SALT THEREOF, AND USE THEREOF” (INDUSTRY-UNIVERSITY COOPERATION FOUNDATION HANYANG …, priority 2021, published 2024)
Numbering of substitutions follows the chain as printed. Where two headings read alike, the source gives them in different places.

Assays:
FLT3 (D835Y) = biological target: T1, FLT3 (D835Y) (Homo sapiens, UniProt P36888, D835Y); assay: Kinase HotSpot radiometric kinase assay (Reaction Biology)
T1 sequence (P36888 27-993 D835Y): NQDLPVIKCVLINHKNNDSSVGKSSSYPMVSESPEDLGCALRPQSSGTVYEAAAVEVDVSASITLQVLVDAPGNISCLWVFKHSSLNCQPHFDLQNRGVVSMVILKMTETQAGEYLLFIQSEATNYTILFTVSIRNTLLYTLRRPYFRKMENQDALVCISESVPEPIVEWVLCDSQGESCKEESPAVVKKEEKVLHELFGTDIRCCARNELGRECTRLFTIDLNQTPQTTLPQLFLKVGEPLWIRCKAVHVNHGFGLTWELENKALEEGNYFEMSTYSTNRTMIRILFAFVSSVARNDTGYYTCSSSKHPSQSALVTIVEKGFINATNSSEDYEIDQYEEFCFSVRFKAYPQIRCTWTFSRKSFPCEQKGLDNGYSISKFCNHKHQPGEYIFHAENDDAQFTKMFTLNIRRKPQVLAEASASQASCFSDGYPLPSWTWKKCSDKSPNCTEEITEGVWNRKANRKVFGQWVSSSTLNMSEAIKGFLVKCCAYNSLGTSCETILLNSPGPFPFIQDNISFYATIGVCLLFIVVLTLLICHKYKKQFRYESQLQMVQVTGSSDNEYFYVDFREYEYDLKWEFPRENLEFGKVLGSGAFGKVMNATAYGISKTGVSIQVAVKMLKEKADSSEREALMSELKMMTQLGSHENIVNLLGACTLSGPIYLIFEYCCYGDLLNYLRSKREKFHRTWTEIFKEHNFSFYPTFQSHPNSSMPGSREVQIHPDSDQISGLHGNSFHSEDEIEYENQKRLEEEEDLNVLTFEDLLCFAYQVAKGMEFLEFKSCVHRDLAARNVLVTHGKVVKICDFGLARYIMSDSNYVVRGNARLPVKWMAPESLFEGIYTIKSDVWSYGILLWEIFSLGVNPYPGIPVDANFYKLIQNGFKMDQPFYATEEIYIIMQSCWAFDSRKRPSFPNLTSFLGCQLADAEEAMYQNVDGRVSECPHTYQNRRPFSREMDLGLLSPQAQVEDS
Experimental: (§1) Reaction Biology Corp. Kinase HotSpot SM service (www.reactionbiology.com) was used to determine IC50 values for all compounds and kinase profiles. The analysis protocol was as follows: In a final reaction volume of 25 μL, a peptide substrate, [[sequence]], 5 μM, ATP 10 μM, and FLT3(h) (5 to 10 mU) were incubated with 25 mM Tris pH 7.5, 0.02 mM EGTA, 0.66 mg/mL myelin basic protein, 10 mM Mg acetate and [γ-33P-ATP] (a concentration of approximately 500 cpm/pmol was required for specific activity). The reaction was initiated by adding the Mg-ATP mixture. After incubation at room temperature for 40 minutes, the reaction was stopped by adding 5 μL of a 3% phosphoric acid solution. Thereafter, 10 μL of the reactant was spotted on a P30 filter mat and washed three times for 5 minutes in 75 mM phosphoric acid and once in methanol before drying and scintillation counting.

FLT3 wild type = biological target: T2, FLT3 wild type (Homo sapiens, UniProt P36888); assay: as above; format: biochemical
T2 construct: purchased Reaction Biology Corp. (Kinase HotSpot service)
T2 sequence (P36888 27-993): T1 sequence (P36888 27-993 D835Y) with Y809D
Experimental: as §1

[1] = read-out: FLT3 (D835Y) IC50, Table 1

Row | IC50 (FLT3 (D835Y); [1]) [nM] | IC50 (FLT3 wild type; Table 1, read-out: FLT3 IC50) [nM] | melting point [°C] | IC50 (FLT3 (D835Y)) [nM] | IC50 (FLT3 wild type; values given in nM, read-out: IC50 FLT3 wild type) [nM] | Structure (SMILES)
1 | 131 | 409 | 154 to 156 |  |  | O=C(Nc1ccc2[nH]c(-c3ccc4cn[nH]c4c3)nc2c1)c1cc(N2CCN(C3CC3)CC2)cc(C(F)(F)F)c1 [Compound 8p, N-(2-(1H-indazol-6-yl)-1H-benzo[di]imidazol-5-yl)-3-(4-cyclopropylpiperazin-1-yl)-5-(trifluoromethyl)benzamide]
2 | 87 | 286 | 166 to 168 |  |  | CCN1CCC(Nc2cc(C(=O)Nc3ccc4[nH]c(-c5ccc6cn[nH]c6c5)nc4c3)cc(C(F)(F)F)c2)CC1 [Compound 8t, N-(2-(1H-indazol-6-yl)-1H-benzo[di]imidazol-5-yl)-3-((1-ethylpiperidin-4-yl)amino)-5-(trifluoromethyl)benzamide]
3 | 42 | 145 | 255 to 257 |  |  | CCN1CCN(Cc2cc(C(=O)Nc3ccc4[nH]c(-c5ccc6cn[nH]c6c5)nc4c3)cc(C(F)(F)F)c2)CC1(C)C [Compound 8y, N-(2-(1H-indazol-6-yl)-1H-benzo[di]imidazol-5-yl)-3-((4-ethyl-3,3-dimethylpiperazine-1-yl)methyl)-5-(trifluoromethyl)benzamide]
4 |  |  | 153 to 154 | ~10 | 65.9 | CCN1CCN(c2cc(C(=O)Nc3ccc4[nH]c(-c5ccc6cn[nH]c6c5)nc4c3)cc(C(F)(F)F)c2)CC1(C)C [Compound 8z, N-(2-(1H-indazol-6-yl)-1H-benzo[di]imidazol-5-yl)-3-(4-ethyl-3,3-dimethylpiperazine-1-yl)-5-(trifluoromethyl)benzamide]
